This is an account of results in patent US11292796B2 (SIGNAL PHARMACEUTICALS, LLC, priority 2008, dated 2022).

This assay concerns the target T1, mTOR (Homo sapiens, UniProt P42345).
T1 construct: purchased Invitrogen PR8683A
Briefly: mTOR HTR-FRET assay. As to conditions: read-out: Act. Level (IC50 in mTor HTR-FRET assay). The format is biochemical. An outline of the steps: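 Test compounds, taken from 10 mM DMSO stocks and diluted, were mixed with mTOR enzyme (0.200 μg/mL) in Tris buffer pH 7.4 with 100 mM NaCl, 0.1% Tween-20 and 1 mM DTT. ATP/substrate addition initiated the reaction, alongside compound-free controls.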

T1 sequence (P42345 1360-2549 limits assumed): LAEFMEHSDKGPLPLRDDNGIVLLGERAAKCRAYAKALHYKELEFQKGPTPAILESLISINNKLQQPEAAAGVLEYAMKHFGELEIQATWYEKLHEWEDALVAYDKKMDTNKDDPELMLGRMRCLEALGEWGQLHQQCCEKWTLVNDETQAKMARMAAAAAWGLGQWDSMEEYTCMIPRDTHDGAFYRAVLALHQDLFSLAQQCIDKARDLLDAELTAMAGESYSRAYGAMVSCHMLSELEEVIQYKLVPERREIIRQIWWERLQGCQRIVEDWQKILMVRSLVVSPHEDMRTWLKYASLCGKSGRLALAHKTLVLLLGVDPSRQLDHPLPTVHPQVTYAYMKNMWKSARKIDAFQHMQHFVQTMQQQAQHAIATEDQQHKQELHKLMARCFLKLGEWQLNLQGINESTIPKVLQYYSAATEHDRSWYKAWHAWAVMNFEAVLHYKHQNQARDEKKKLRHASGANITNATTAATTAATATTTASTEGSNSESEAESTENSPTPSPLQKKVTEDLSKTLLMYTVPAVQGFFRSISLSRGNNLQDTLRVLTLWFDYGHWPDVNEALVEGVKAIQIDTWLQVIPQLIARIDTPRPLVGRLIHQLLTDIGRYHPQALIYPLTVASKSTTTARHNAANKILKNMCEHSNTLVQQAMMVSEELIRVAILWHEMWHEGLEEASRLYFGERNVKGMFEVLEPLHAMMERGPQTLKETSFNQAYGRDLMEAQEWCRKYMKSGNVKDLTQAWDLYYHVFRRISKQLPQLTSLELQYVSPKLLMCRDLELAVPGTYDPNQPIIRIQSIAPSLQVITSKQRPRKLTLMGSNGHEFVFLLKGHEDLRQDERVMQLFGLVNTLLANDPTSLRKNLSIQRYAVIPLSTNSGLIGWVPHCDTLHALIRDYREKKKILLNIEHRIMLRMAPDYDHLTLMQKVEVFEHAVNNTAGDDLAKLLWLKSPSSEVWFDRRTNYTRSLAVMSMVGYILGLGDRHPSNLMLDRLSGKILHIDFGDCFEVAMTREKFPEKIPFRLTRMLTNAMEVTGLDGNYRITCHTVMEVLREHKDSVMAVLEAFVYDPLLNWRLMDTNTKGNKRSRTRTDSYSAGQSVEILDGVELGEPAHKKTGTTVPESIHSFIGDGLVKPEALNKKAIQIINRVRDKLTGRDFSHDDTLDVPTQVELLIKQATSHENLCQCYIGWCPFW

As a reminder, the IC50 is the concentration at which inhibition is half-maximal. Take `CO[C@H]1C[C@@H]2C(=O)Nc3ncc(-c4ccc(-c5nnc[nH]5)cc4C)nc3N2C1` [Example 112, 8-(4-(4H-1,2,4-triazol-3-yl)-2-methylphenyl)(2S,3aR)-2-methoxy-5,10,3a-trihydropyrazino[2,3-b]pyrrolidino[1,2-e]pyrazin-4-one]: the IC50 was in the range of 0.005 to 250 nM.

With `CO[C@H]1C[C@H]2C(=O)Nc3ncc(-c4ccc(-c5nnc[nH]5)cc4C)nc3N2C1` [Example 113, 8-(4-(4H-1,2,4-triazol-3-yl)-2-methylphenyl)(2S,3aS)-2-methoxy-5,10,3a-trihydropyrazino[2,3-b]pyrrolidino[1,2-e]pyrazin-4-one], the IC50 is 250 to 500 nM.

On to `COCCCN1CC(=O)Nc2ncc(-c3ccc(C(C)(C)O)nc3)nc21` [Example 114, 6-(6-(2-hydroxypropan-2-yl)pyridin-3-yl)-4-(3-methoxypropyl)-3,4-dihydropyrazino[2,3-b]pyrazin-2(1H)-one], for which the IC50 lay in the range of 1000 to 10000 nM.

On to `CC(C)(O)c1ccc(-c2cnc3c(n2)N(C[C@@H]2CCCO2)CC(=O)N3)cn1` [Example 115, (S)-6-(6-(2-hydroxypropan-2-yl)pyridin-3-yl)-4-((tetrahydrofuran-2-yl)methyl)-3,4-dihydropyrazino[2,3-b]pyrazin-2(1H)-one], for which the 50% inhibitory concentration (IC50) is 1000 to 10000 nM.

As to `CC(C)(O)c1ccc(-c2cnc3c(n2)N(C[C@H]2CCCO2)CC(=O)N3)cn1` [Example 116, (R)-6-(6-(2-hydroxypropan-2-yl)pyridin-3-yl)-4-((tetrahydrofuran-2-yl)methyl)-3,4-dihydropyrazino[2,3-b]pyrazin-2(1H)-one], the IC50 was 500 to 1000 nM.

In the case of `Cc1cc(-c2nnc[nH]2)ccc1-c1cnc2c(n1)N1CCN(C)CC1C(=O)N2` (centres unmarked) [Example 118, 9-(4-(4H-1,2,4-triazol-3-yl)-2-methylphenyl)-3-methyl-6,11,4a-trihydropiperazino[1,2-e]pyrazino[2,3-b]pyrazin-5-one], the IC50 was 500 to 1000 nM.

Consider `O=C1Nc2ncc(-c3ccc(-c4nnc[nH]4)cc3)nc2N2CCOCC12` (centres unmarked) [Example 119, 9-(4-(4H-1,2,4-triazol-3-yl)phenyl)-6,11,4a-trihydromorpholino[4,3-e]pyrazino[2,3-b]pyrazin-5-one], for which the IC50 lay in the range of 0.005 to 250 nM.

With `Cc1cc(-c2nnc[nH]2)ccc1-c1cnc2c(n1)N1CCCCC1C(=O)N2` (centres unmarked) [Example 120, 9-(4-(4H-1,2,4-triazol-3-yl)-2-methylphenyl)-6,11,4a-trihydropiperidino[1,2-e]pyrazino[2,3-b]pyrazin-5-one], the IC50 was 0.005 to 250 nM.

Regarding `CC(C)(O)c1ccc(-c2cnc3c(n2)N(CCN2CCOCC2)CC(=O)N3)cn1` [Example 123, 6-(6-(2-hydroxypropan-2-yl)pyridin-3-yl)-4-(2-morpholinoethyl)-3,4-dihydropyrazino[2,3-b]pyrazin-2(1H)-one], the concentration for half-maximal inhibition (IC50) was in the range of 1000 to 10000 nM.

In the case of `CC(C)(O)c1ccc(-c2cnc3c(n2)N(CCc2ccccc2)CC(=O)N3)cn1` [Example 124, 6-(6-(2-hydroxypropan-2-yl)pyridin-3-yl)-4-phenethyl-3,4-dihydropyrazino[2,3-b]pyrazin-2(1H)-one], the IC50 was in the range of 250 to 500 nM.

For the molecule `CC(C)(O)c1ccc(-c2cnc3c(n2)N([C@@H]2CCOC2)CC(=O)N3)cn1` [Example 129, (R)-6-(6-(2-hydroxypropan-2-yl)pyridin-3-yl)-4-(tetrahydrofuran-3-yl)-3,4-dihydropyrazino[2,3-b]pyrazin-2(1H)-one], the IC50 was in the range of 500 to 1000 nM.

Take `CC(C)(O)c1ccc(-c2cnc3c(n2)N([C@H]2CCOC2)CC(=O)N3)cn1` [Example 130, (S)-6-(6-(2-hydroxypropan-2-yl)pyridin-3-yl)-4-(tetrahydrofuran-3-yl)-3,4-dihydropyrazino[2,3-b]pyrazin-2(1H)-one]: the IC50 lay in the range of 500 to 1000 nM.

Regarding `C[C@H]1C(=O)Nc2ncc(-c3ccc(C(C)(C)O)nc3)nc2N1CCC1CCOCC1` [Example 132, (S)-6-(6-(2-hydroxypropan-2-yl)pyridin-3-yl)-3-methyl-4-(2-(tetrahydro-2H-pyran-4-yl)ethyl)-3,4-dihydropyrazino[2,3-b]pyrazin-2(1H)-one], the IC50 lay within 0.005 to 250 nM.

For the molecule `CC(C)(O)c1ccc(-c2cnc3c(n2)N2CCOCC2C(=O)N3)cn1` (centres unmarked) [Example 133, 9-[6-(1-hydroxy-isopropyl)-3-pyridyl]-6,11,4a-trihydromorpholino[4,3-e]pyrazino[2,3-b]pyrazin-5-one], the IC50 was in the range of 500 to 1000 nM.

Take `Cc1cc(-c2cnc3c(n2)N(Cc2cccc(C(F)(F)F)c2)CC(=O)N3)cc2nc(N)[nH]c12` [Example 136, 6-(2-amino-7-methyl-1H-benzo[d]imidazol-5-yl)-4-(3-(trifluoromethyl)benzyl)-3,4-dihydropyrazino[2,3-b]pyrazin-2(1H)-one]: the IC50 was in the range of 500 to 1000 nM.

Turning to `CC(C)(O)c1ccc(-c2cnc3c(n2)N(Cc2cccc(C(F)(F)F)c2)CC(=O)N3)cn1` [Example 137, 6-(6-(2-hydroxypropan-2-yl)pyridin-3-yl)-4-(3-(trifluoromethyl)benzyl)-3,4-dihydropyrazino[2,3-b]pyrazin-2(1H)-one], the IC50 lay in the range of 0.005 to 250 nM.

In the case of `Cc1cc(-c2nnc[nH]2)ccc1-c1cnc2c(n1)N1CCOCC1C(=O)N2` (centres unmarked) [Example 138, 9-(4-(4H-1,2,4-triazol-3-yl)-2-methylphenyl)-6,11,4a-trihydromorpholino[4,3-e]pyrazino[2,3-b]pyrazin-5-one], the IC50 was 0.005 to 250 nM.

Regarding `CNc1nc2c(C)cc(-c3cnc4c(n3)N(CCC3CCOCC3)CC(=O)N4)cc2[nH]1` [Example 139, 6-(4-methyl-2-(methylamino)-1H-benzo[d]imidazol-6-yl)-4-(2-(tetrahydro-2H-pyran-4-yl)ethyl)-3,4-dihydropyrazino[2,3-b]pyrazin-2(1H)-one], the IC50 lay within 0.005 to 250 nM.

With `Cc1cc(-c2nnc[nH]2)ccc1-c1cnc2c(n1)N1CCCC1C(=O)N2` (centres unmarked) [Example 140, 8-(4-(4H-1,2,4-triazol-3-yl)-2-methylphenyl)-5,10,3a-trihydropyrazino[2,3-b]pyrrolidino[1,2-e]pyrazin-4-one], the IC50 was in the range of 0.005 to 250 nM.

Regarding `CCN1CC(=O)Nc2ncc(-c3ccc(-c4nnc[nH]4)cc3)nc21` [Example 141, 6-(4-(4H-1,2,4-triazol-3-yl)phenyl)-4-ethyl-3,4-dihydropyrazino[2,3-b]pyrazin-2(1H)-one], the IC50 was 250 to 500 nM.

Turning to `O=C1CN(CC2CCOCC2)c2nc(-c3ccc(-c4nnc[nH]4)cc3)cnc2N1` [Example 142, 6-(4-(4H-1,2,4-triazol-3-yl)phenyl)-4-((tetrahydro-2H-pyran-4-yl)methyl)-3,4-dihydropyrazino[2,3-b]pyrazin-2(1H)-one], the IC50 is 0.005 to 250 nM.

For `COCCN1CC(=O)Nc2ncc(-c3ccc(-c4nnc[nH]4)cc3)nc21` [Example 144, 6-(4-(4H-1,2,4-triazol-3-yl)phenyl)-4-(2-methoxyethyl)-3,4-dihydropyrazino[2,3-b]pyrazin-2(1H)-one], the IC50 was in the range of 0.005 to 250 nM.

On to `O=C1CN(Cc2cccc(C(F)(F)F)c2)c2nc(-c3ccc(-c4nnc[nH]4)cc3)cnc2N1` [Example 145, 6-(4-(4H-1,2,4-triazol-3-yl)phenyl)-4-(3-(trifluoromethyl)benzyl)-3,4-dihydropyrazino[2,3-b]pyrazin-2(1H)-one], for which the IC50 is 0.005 to 250 nM.

`Cc1cc(-c2cnc3c(n2)N(CCC2CCOCC2)CC(=O)N3)cc2[nH]cnc12` [Example 147, 6-(4-methyl-1H-benzo[d]imidazol-6-yl)-4-(2-(tetrahydro-2H-pyran-4-yl)ethyl)-3,4-dihydropyrazino[2,3-b]pyrazin-2(1H)-one]: the IC50 was 500 to 1000 nM.

In the case of `CO[C@H]1CC[C@H](CN2C(=O)CNc3ncc(-c4cc(F)c(-c5nc[nH]n5)cc4C)nc32)CC1` [Example 150, 7-(5-fluoro-2-methyl-4-(1H-1,2,4-triazol-3-yl)phenyl)-1-((trans-4-methoxycyclohexyl)methyl)-3,4-dihydropyrazino[2,3-b]pyrazin-2(1H)-one], the IC50 lay in the range of 0.005 to 250 nM.

As for `CO[C@H]1CC[C@@H](N2C(=O)CNc3ncc(-c4ccc(-c5nc[nH]n5)nc4)nc32)CC1` [Example 151, 7-(6-(1H-1,2,4-triazol-3-yl)pyridin-3-yl)-1-(cis-4-methoxycyclohexyl)-3,4-dihydropyrazino[2,3-b]pyrazin-2(1H)-one], the IC50 is 0.005 to 250 nM.

Regarding `O=C1CNc2ncc(-c3c[nH]c4ncccc34)nc2N1CCC1CCOCC1` [Example 152, 7-(1H-pyrrolo[2,3-b]pyridin-3-yl)-1-(2-(tetrahydro-2H-pyran-4-yl)ethyl)-3,4-dihydropyrazino[2,3-b]pyrazin-2(1H)-one], the concentration for half-maximal inhibition (IC50) was in the range of 0.005 to 250 nM.

As for `CO[C@H]1CC[C@@H](CN2C(=O)CNc3ncc(-c4cc(F)c(-c5nc[nH]n5)cc4C)nc32)CC1` [Example 153, 7-(5-fluoro-2-methyl-4-(1H-1,2,4-triazol-3-yl)phenyl)-1-((cis-4-methoxycyclohexyl)methyl)-3,4-dihydropyrazino[2,3-b]pyrazin-2(1H)-one], the IC50 lay in the range of 0.005 to 250 nM.

For `CCN1C(=O)CNc2ncc(-c3ccc4[nH]ccc4n3)nc21` [Example 154, 1-ethyl-7-(1H-pyrrolo[3,2-b]pyridin-5-yl)-3,4-dihydropyrazino[2,3-b]pyrazin-2(1H)-one], the IC50 is 1000 to 10000 nM.

Turning to `CO[C@H]1CC[C@@H](CN2C(=O)CNc3ncc(-c4ccc(-c5nc[nH]n5)nc4)nc32)CC1` [Example 155, 7-(6-(1H-1,2,4-triazol-3-yl)pyridin-3-yl)-1-((cis-4-methoxycyclohexyl)methyl)-3,4-dihydropyrazino[2,3-b]pyrazin-2(1H)-one], the IC50 lay within 0.005 to 250 nM.

Regarding `O=C1CNc2ncc(-c3cccc4[nH]cnc34)nc2N1CCC1CCOCC1` [Example 156, 7-(1H-benzo[d]imidazol-4-yl)-1-(2-(tetrahydro-2H-pyran-4-yl)ethyl)-3,4-dihydropyrazino[2,3-b]pyrazin-2(1H)-one], the IC50 was 500 to 1000 nM.

Consider `O=C1CNc2ncc(-c3ccnc4[nH]ccc34)nc2N1CCC1CCOCC1` [Example 157, 7-(1H-pyrrolo[2,3-b]pyridin-4-yl)-1-(2-(tetrahydro-2H-pyran-4-yl)ethyl)-3,4-dihydropyrazino[2,3-b]pyrazin-2(1H)-one], for which the IC50 is 0.005 to 250 nM.
